Source: PubChem BioAssay (NCI)
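Briefly, cells in 96-well plates were exposed to five compound concentrations for 48 h, and endpoints were estimated by linear interpolation. Abbreviation: GI50, concentration required for 50% inhibition of growth. Definition used: TGI = concentration required for complete inhibition of growth.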

Columns and labels:
Assay in all cases: NCI tumour cell line growth inhibition, 48 h
786-0 renal = tested on: 786-0 renal
A498 renal = tested on: A498 renal
A549 NSCLC = tested on: A549 NSCLC
ACHN renal = tested on: ACHN renal
BT-549 breast = tested on: BT-549 breast
CAKI-1 renal = tested on: CAKI-1 renal
CCRF-CEM leukemia = tested on: CCRF-CEM leukemia
COLO 205 colon = tested on: COLO 205 colon
DU-145 prostate = tested on: DU-145 prostate
EKVX NSCLC = tested on: EKVX NSCLC
HCC-2998 colon = tested on: HCC-2998 colon
HCT-116 colon = tested on: HCT-116 colon
HCT-15 colon = tested on: HCT-15 colon
HL-60(TB) leukemia = tested on: HL-60(TB) leukemia
HOP-62 NSCLC = tested on: HOP-62 NSCLC
HOP-92 NSCLC = tested on: HOP-92 NSCLC
HS 578T breast = tested on: HS 578T breast
HT29 colon = tested on: HT29 colon
IGROV1 ovarian = tested on: IGROV1 ovarian
K-562 leukemia = tested on: K-562 leukemia
KM12 colon = tested on: KM12 colon
LOX IMVI melanoma = tested on: LOX IMVI melanoma
M14 melanoma = tested on: M14 melanoma
MALME-3M melanoma = tested on: MALME-3M melanoma
MCF7 breast = tested on: MCF7 breast
MDA-MB-231 breast = tested on: MDA-MB-231 breast
MDA-MB-435 = tested on: MDA-MB-435
MOLT-4 leukemia = tested on: MOLT-4 leukemia
NCI-H226 lung = tested on: NCI-H226 lung
NCI-H23 lung = tested on: NCI-H23 lung
NCI-H460 lung = tested on: NCI-H460 lung
NCI-H522 lung = tested on: NCI-H522 lung
NCI/ADR-RES ovarian = tested on: NCI/ADR-RES ovarian
OVCAR-3 ovarian = tested on: OVCAR-3 ovarian
OVCAR-4 ovarian = tested on: OVCAR-4 ovarian
OVCAR-5 ovarian = tested on: OVCAR-5 ovarian
OVCAR-8 ovarian = tested on: OVCAR-8 ovarian
PC-3 prostate = tested on: PC-3 prostate
RPMI-8226 leukemia = tested on: RPMI-8226 leukemia
RXF 393 renal = tested on: RXF 393 renal
SF-268 CNS = tested on: SF-268 CNS
SF-295 CNS = tested on: SF-295 CNS
SF-539 CNS = tested on: SF-539 CNS
SK-MEL-2 melanoma = tested on: SK-MEL-2 melanoma
SK-MEL-28 melanoma = tested on: SK-MEL-28 melanoma
SK-MEL-5 melanoma = tested on: SK-MEL-5 melanoma
SK-OV-3 ovarian = tested on: SK-OV-3 ovarian
SN12C renal = tested on: SN12C renal
SNB-19 CNS = tested on: SNB-19 CNS
SNB-75 CNS = tested on: SNB-75 CNS
SR leukemia = tested on: SR leukemia
SW-620 colon = tested on: SW-620 colon
T-47D breast = tested on: T-47D breast
TK-10 renal = tested on: TK-10 renal
U251 CNS = tested on: U251 CNS
UACC-257 melanoma = tested on: UACC-257 melanoma
UACC-62 melanoma = tested on: UACC-62 melanoma
UO-31 renal = tested on: UO-31 renal

Q: `O=C(NCC(F)(F)F)Nc1cccc(-c2cnc3cc(-c4ccc(F)cc4)ccn23)c1` was tested. Which GI50 (786-0 renal) did it give?
A: 2260 nM

Q: What about the TGI (786-0 renal) of the same compound?
A: > 100000 nM

Q: What about the GI50 (A498 renal) of the same compound?
A: 290 nM

Q: And the TGI (A498 renal)?
A: 2470 nM

Q: What about the GI50 (A549 NSCLC) of the same compound?
A: 947 nM

Q: And the TGI (A549 NSCLC)?
A: > 100000 nM

Q: And the GI50 (ACHN renal)?
A: 2530 nM

Q: What about the TGI (ACHN renal) of the same compound?
A: > 52100 nM

Q: What about the GI50 (BT-549 breast) of the same compound?
A: 1310 nM

Q: What about the TGI (BT-549 breast) of the same compound?
A: > 61000 nM

Q: What about the GI50 (CAKI-1 renal) of the same compound?
A: 1050 nM

Q: And the GI50 (CCRF-CEM leukemia)?
A: 1250 nM

Q: And the TGI (CCRF-CEM leukemia)?
A: > 82700 nM

Q: And the GI50 (COLO 205 colon)?
A: 531 nM

Q: What about the TGI (COLO 205 colon) of the same compound?
A: > 26700 nM

Q: And the GI50 (DU-145 prostate)?
A: 3910 nM

Q: What about the TGI (DU-145 prostate) of the same compound?
A: > 100000 nM

Q: What about the GI50 (EKVX NSCLC) of the same compound?
A: 5170 nM

Q: And the TGI (EKVX NSCLC)?
A: > 100000 nM

Q: What about the GI50 (HCC-2998 colon) of the same compound?
A: 1950 nM

Q: And the TGI (HCC-2998 colon)?
A: 49400 nM

Q: And the GI50 (HCT-116 colon)?
A: 539 nM

Q: What about the TGI (HCT-116 colon) of the same compound?
A: 14700 nM

Q: What about the GI50 (HCT-15 colon) of the same compound?
A: 614 nM

Q: And the TGI (HCT-15 colon)?
A: > 74000 nM

Q: And the GI50 (HL-60(TB) leukemia)?
A: 580 nM

Q: And the TGI (HL-60(TB) leukemia)?
A: 24700 nM

Q: And the GI50 (HOP-62 NSCLC)?
A: 1510 nM

Q: And the TGI (HOP-62 NSCLC)?
A: > 86300 nM

Q: And the GI50 (HOP-92 NSCLC)?
A: 2150 nM

Q: And the TGI (HOP-92 NSCLC)?
A: > 100000 nM

Q: And the GI50 (HS 578T breast)?
A: 733 nM

Q: And the TGI (HS 578T breast)?
A: > 100000 nM

Q: And the GI50 (HT29 colon)?
A: 314 nM

Q: And the TGI (HT29 colon)?
A: 1230 nM

Q: What about the GI50 (IGROV1 ovarian) of the same compound?
A: 673 nM

Q: And the TGI (IGROV1 ovarian)?
A: 7750 nM

Q: What about the GI50 (K-562 leukemia) of the same compound?
A: 376 nM

Q: And the TGI (K-562 leukemia)?
A: 10900 nM

Q: What about the GI50 (KM12 colon) of the same compound?
A: 347 nM

Q: And the TGI (KM12 colon)?
A: 31700 nM

Q: What about the GI50 (LOX IMVI melanoma) of the same compound?
A: 727 nM

Q: What about the TGI (LOX IMVI melanoma) of the same compound?
A: 11200 nM

Q: What about the GI50 (M14 melanoma) of the same compound?
A: 1150 nM

Q: What about the TGI (M14 melanoma) of the same compound?
A: > 100000 nM

Q: What about the GI50 (MALME-3M melanoma) of the same compound?
A: 541 nM

Q: And the TGI (MALME-3M melanoma)?
A: 46200 nM

Q: What about the GI50 (MCF7 breast) of the same compound?
A: 586 nM

Q: And the TGI (MCF7 breast)?
A: 18500 nM

Q: And the GI50 (MDA-MB-231 breast)?
A: 2650 nM

Q: What about the TGI (MDA-MB-231 breast) of the same compound?
A: > 49400 nM

Q: And the GI50 (MDA-MB-435)?
A: 216 nM

Q: And the TGI (MDA-MB-435)?
A: 983 nM

Q: And the GI50 (MOLT-4 leukemia)?
A: 681 nM

Q: And the TGI (MOLT-4 leukemia)?
A: > 29000 nM

Q: And the GI50 (NCI-H226 lung)?
A: 3990 nM

Q: What about the TGI (NCI-H226 lung) of the same compound?
A: > 100000 nM

Q: What about the GI50 (NCI-H23 lung) of the same compound?
A: 1650 nM

Q: What about the TGI (NCI-H23 lung) of the same compound?
A: 20800 nM

Q: What about the GI50 (NCI-H460 lung) of the same compound?
A: 491 nM

Q: And the TGI (NCI-H460 lung)?
A: > 100000 nM

Q: And the GI50 (NCI-H522 lung)?
A: 225 nM

Q: What about the TGI (NCI-H522 lung) of the same compound?
A: 962 nM

Q: What about the GI50 (NCI/ADR-RES ovarian) of the same compound?
A: 1820 nM

Q: And the TGI (NCI/ADR-RES ovarian)?
A: > 68000 nM

Q: What about the GI50 (OVCAR-3 ovarian) of the same compound?
A: 812 nM

Q: And the TGI (OVCAR-3 ovarian)?
A: 15800 nM

Q: What about the GI50 (OVCAR-4 ovarian) of the same compound?
A: 1660 nM

Q: What about the TGI (OVCAR-4 ovarian) of the same compound?
A: > 100000 nM

Q: What about the GI50 (OVCAR-5 ovarian) of the same compound?
A: 8330 nM

Q: What about the TGI (OVCAR-5 ovarian) of the same compound?
A: > 86300 nM

Q: And the GI50 (OVCAR-8 ovarian)?
A: 2830 nM

Q: What about the TGI (OVCAR-8 ovarian) of the same compound?
A: 33600 nM

Q: And the GI50 (PC-3 prostate)?
A: 2220 nM

Q: And the TGI (PC-3 prostate)?
A: > 100000 nM

Q: What about the GI50 (RPMI-8226 leukemia) of the same compound?
A: 1290 nM

Q: And the TGI (RPMI-8226 leukemia)?
A: 17900 nM

Q: And the GI50 (RXF 393 renal)?
A: 1130 nM

Q: And the TGI (RXF 393 renal)?
A: 6360 nM

Q: And the GI50 (SF-268 CNS)?
A: 2800 nM

Q: And the TGI (SF-268 CNS)?
A: > 100000 nM

Q: What about the GI50 (SF-295 CNS) of the same compound?
A: 737 nM

Q: And the TGI (SF-295 CNS)?
A: 6970 nM

Q: And the GI50 (SF-539 CNS)?
A: 522 nM

Q: What about the TGI (SF-539 CNS) of the same compound?
A: 3500 nM

Q: What about the GI50 (SK-MEL-2 melanoma) of the same compound?
A: 477 nM

Q: And the TGI (SK-MEL-2 melanoma)?
A: 12000 nM

Q: What about the GI50 (SK-MEL-28 melanoma) of the same compound?
A: 9160 nM

Q: And the TGI (SK-MEL-28 melanoma)?
A: > 83000 nM

Q: What about the GI50 (SK-MEL-5 melanoma) of the same compound?
A: 549 nM

Q: What about the TGI (SK-MEL-5 melanoma) of the same compound?
A: 14000 nM

Q: And the GI50 (SK-OV-3 ovarian)?
A: 1960 nM

Q: And the TGI (SK-OV-3 ovarian)?
A: > 54200 nM

Q: What about the GI50 (SN12C renal) of the same compound?
A: 1540 nM

Q: And the TGI (SN12C renal)?
A: > 67400 nM

Q: What about the GI50 (SNB-19 CNS) of the same compound?
A: 2260 nM

Q: What about the TGI (SNB-19 CNS) of the same compound?
A: > 100000 nM

Q: What about the GI50 (SNB-75 CNS) of the same compound?
A: 240 nM

Q: And the TGI (SNB-75 CNS)?
A: 2090 nM

Q: And the GI50 (SR leukemia)?
A: 314 nM

Q: What about the TGI (SR leukemia) of the same compound?
A: 11100 nM

Q: And the GI50 (SW-620 colon)?
A: 515 nM

Q: And the TGI (SW-620 colon)?
A: 36800 nM

Q: What about the GI50 (T-47D breast) of the same compound?
A: 2690 nM

Q: And the TGI (T-47D breast)?
A: 62000 nM

Q: And the GI50 (TK-10 renal)?
A: 1020 nM

Q: And the TGI (TK-10 renal)?
A: 17700 nM

Q: What about the GI50 (U251 CNS) of the same compound?
A: 622 nM

Q: What about the TGI (U251 CNS) of the same compound?
A: 20800 nM

Q: And the GI50 (UACC-257 melanoma)?
A: 14200 nM

Q: What about the TGI (UACC-257 melanoma) of the same compound?
A: 65500 nM

Q: And the GI50 (UACC-62 melanoma)?
A: 2440 nM

Q: What about the TGI (UACC-62 melanoma) of the same compound?
A: > 56200 nM

Q: And the GI50 (UO-31 renal)?
A: 575 nM

Q: And the TGI (UO-31 renal)?
A: 5530 nM
